Reference: patent US8415272B2, “Quinoline derivatives and their use as fungicides” (Syngenta Crop Protection LLC, priority 2008, dated 2013)

Assays:
[1] = system: Puccinia recondita f.sp. tritici; experiment: Leaf disk assay, Puccinia recondita f.sp. tritici (wheat brown rust), preventive; assay type: in vivo; conditions: foliar, 216 h, wheat leaf segments, assessed nine days after inoculation, read-out: control of fungal infection, Puccinia recondita f.sp. tritici
Pythium ultimum = experiment: Growth inhibition in potato dextrose broth, Pythium ultimum (damping off), photometric; assay type: cell-based; conditions: Globisporangium ultimum, 24° C., 48 hours, read-out: control of fungal infection, Pythium ultimum
Summary of the method: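 Growth inhibition was read photometrically at 48 hours after incubation at 24° C. Test compound was diluted from DMSO to 20 ppm in water and combined with potato dextrose broth seeded with Pythium ultimum mycelial fragments.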

Plasmopara viticola = experiment: Leaf disk assay, Plasmopara viticola (downy mildew of grapevine), preventive; assay type: in vivo; conditions: foliar, 168 h, grapevine leaf disks, assessed seven days after inoculation, read-out: control of fungal infection, Plasmopara viticola
[2] = system: Erysiphe graminis f.sp. tritici; experiment: Leaf disk assay, Erysiphe graminis f.sp. tritici (wheat powdery mildew), preventive; assay type: in vivo; conditions: Blumeria graminis, foliar, 96 h, wheat leaf segments, assessed four days after inoculation, read-out: control of fungal infection, Erysiphe graminis f.sp. tritici
Summary of the method: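 Wheat leaf segments on agar were sprayed with compound at 200 ppm (DMSO stock diluted in water). After 12–24 h drying they were inoculated with powdery mildew spores. Preventive activity was scored 4 days after inoculation.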

Pyrenophora teres = experiment: Leaf disk assay, Pyrenophora teres (barley net blotch), preventive; assay type: in vivo; conditions: foliar, 96 h, barley leaf segments, assessed four days after inoculation, read-out: control of fungal infection, Pyrenophora teres
Summary of the method: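 Barley leaf segments on agar were sprayed with compound at 200 ppm (from DMSO stock diluted in water) and dried for 12-24 h before inoculation with a Pyrenophora teres spore suspension. Preventive fungicidal activity was scored 4 days after inoculation.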

Septoria tritici = experiment: Growth inhibition in nutrient broth, Septoria tritici (leaf blotch), photometric; assay type: cell-based; conditions: Zymoseptoria tritici, PDB broth, 24 C, 72 hrs, read-out: control of fungal infection, Septoria tritici
Botrytis cinerea = experiment: Leaf disk assay, Botrytis cinerea (grey mould) on bean, preventive; assay type: in vivo; conditions: foliar, 96 h, bean leaf disks, assessed four days after inoculation, read-out: control of fungal infection, Botrytis cinerea
Phytophthora infestans = experiment: whole plant or invertebrate; assay type: in vivo; conditions: in Solanum lycopersicum, foliar, 96 h, read-out: control of fungal infection, Phytophthora infestans
Septoria nodorum = experiment: Leaf disk assay, Septoria nodorum (wheat glume blotch), preventive; assay type: in vivo; conditions: Parastagonospora nodorum, foliar, 96 h, wheat leaf segments, assessed four days after inoculation, read-out: control of fungal infection, Septoria nodorum
Fusarium culmorum = experiment: Growth inhibition in nutrient broth, Fusarium culmorum (root rot), photometric; assay type: cell-based; conditions: 48 h, read-out: control of fungal infection, Fusarium culmorum
Summary of the method: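 Fusarium culmorum conidia in potato dextrose broth were added to compounds in DMSO. Plates were incubated at 24 C for 48 hrs, with growth inhibition read photometrically. […]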

Pyricularia oryzae = experiment: whole plant or invertebrate; assay type: in vivo; conditions: foliar, 96 h, read-out: control of fungal infection, Pyricularia oryzae

C#CCOCC(C)(C)NC(=O)C(Oc1cc(C)c2ncc(C#C)cc2c1)SC (stereo not shown) [Example 14]
≥ 60%: pest or weed control at 200 ppm [1] | inhibition of growth at 20 ppm (Pythium ultimum) | pest or weed control at 200 ppm (Plasmopara viticola) | pest or weed control at 200 ppm [2] | pest or weed control at 200 ppm (Pyrenophora teres) | inhibition of growth at 60 ppm (Septoria tritici) | pest or weed control at 200 ppm (Botrytis cinerea) | pest or weed control at 200 ppm (Phytophthora infestans) | pest or weed control at 200 ppm (Septoria nodorum) | inhibition of growth at 60 ppm (Fusarium culmorum) | pest or weed control at 200 ppm (Pyricularia oryzae)

C#Cc1cnc2c(C)cc(OC(SC)C(=O)NC(C)(C)C#C)cc2c1 (stereo not shown) [Example 7]
≥ 60%: inhibition of growth at 20 ppm (Pythium ultimum) | pest or weed control at 200 ppm (Plasmopara viticola) | pest or weed control at 200 ppm (Pyrenophora teres) | inhibition of growth at 60 ppm (Septoria tritici) | pest or weed control at 200 ppm (Phytophthora infestans) | pest or weed control at 200 ppm (Septoria nodorum) | inhibition of growth at 60 ppm (Fusarium culmorum) | pest or weed control at 200 ppm (Pyricularia oryzae)

C#Cc1cnc2c(C)cc(OC(SC)C(=O)NC(C)(C)COC)cc2c1 (stereo not shown) [Example 13]
≥ 60%: pest or weed control at 200 ppm [1] | inhibition of growth at 20 ppm (Pythium ultimum) | pest or weed control at 200 ppm (Plasmopara viticola) | pest or weed control at 200 ppm [2] | pest or weed control at 200 ppm (Pyrenophora teres) | inhibition of growth at 60 ppm (Septoria tritici) | pest or weed control at 200 ppm (Botrytis cinerea) | pest or weed control at 200 ppm (Phytophthora infestans) | pest or weed control at 200 ppm (Septoria nodorum) | inhibition of growth at 60 ppm (Fusarium culmorum) | pest or weed control at 200 ppm (Pyricularia oryzae)

C#CCC(C)(C)NC(=O)C(Oc1cc(C)c2ncc(C#C)cc2c1)SC (stereo not shown) [Example 16]
≥ 60%: pest or weed control at 200 ppm [1] | inhibition of growth at 20 ppm (Pythium ultimum) | pest or weed control at 200 ppm (Plasmopara viticola) | pest or weed control at 200 ppm [2] | pest or weed control at 200 ppm (Pyrenophora teres) | inhibition of growth at 60 ppm (Septoria tritici) | pest or weed control at 200 ppm (Phytophthora infestans) | pest or weed control at 200 ppm (Septoria nodorum) | inhibition of growth at 60 ppm (Fusarium culmorum) | pest or weed control at 200 ppm (Pyricularia oryzae)

C#Cc1cnc2c(C)cc(OC(SC)C(=O)NC(C)(C)C#CC)cc2c1 (stereo not shown) [Example 8]
≥ 60%: inhibition of growth at 20 ppm (Pythium ultimum) | pest or weed control at 200 ppm (Plasmopara viticola) | pest or weed control at 200 ppm (Pyrenophora teres) | inhibition of growth at 60 ppm (Septoria tritici) | pest or weed control at 200 ppm (Botrytis cinerea) | pest or weed control at 200 ppm (Phytophthora infestans) | pest or weed control at 200 ppm (Septoria nodorum) | inhibition of growth at 60 ppm (Fusarium culmorum) | pest or weed control at 200 ppm (Pyricularia oryzae)
